Measured values from ChEMBL document CHEMBL3045187, “Chemical weed control in seedbed sown onion (Allium cepa L.)” (Crop Prot, 2006).

What was measured:
Cyperus rotundus [1] = assay: Herbicidal activity against Cyperus rotundus assessed as total fresh weight at 0.225 kg/ha applied as spray during post-emergence (reference value: 23.6 MT/ha); type: functional
Chenopodiastrum murale [2] = assay: Herbicidal activity against Chenopodium murale assessed as total fresh weight at 0.225 kg/ha applied as spray during postemergence (reference value: 23.6 MT/ha); type: functional
Malva sylvestris [3] = assay: Herbicidal activity against Malva sylvestris assessed as total dry weight at 0.225 kg/ha applied as spray during post-emergence (reference value: 4.1 MT/ha); type: functional
Chenopodiastrum murale [4] = assay: Herbicidal activity against Chenopodium murale assessed as total dry weight at 0.225 kg/ha applied as spray during postemergence (reference value: 4.1 MT/ha); type: functional
Cyperus rotundus [5] = assay: Herbicidal activity against Cyperus rotundus assessed as total dry weight at 0.225 kg/ha applied as spray during post-emergence (reference value: 4.1 MT/ha); type: functional
Malva sylvestris [6] = assay: Herbicidal activity against Malva sylvestris assessed as total fresh weight at 0.225 kg/ha applied as spray during post-emergence (reference value: 23.6 MT/ha); type: functional
Allium cepa [7] = assay: Phytotoxicity in Allium cepa (onion) seedling assessed as total fresh weight at 0.225 kg/ha applied as spray during post-emergence (reference value: 7.71 MT/ha); type: organism-based; details: in vivo, other
Malva sylvestris [8] = assay: Herbicidal activity against Malva sylvestris assessed as total dry weight at 0.6 kg/ha applied as spray before seed sowing (reference value: 4.1 MT/ha); type: functional
Chenopodiastrum murale [9] = assay: Herbicidal activity against Chenopodium murale assessed as total fresh weight at 0.6 kg/ha applied as spray before seed sowing (reference value: 23.6 MT/ha); type: functional
Cyperus rotundus [10] = assay: Herbicidal activity against Cyperus rotundus assessed as total dry weight at 0.6 kg/ha applied as spray before seed sowing (reference value: 4.1 MT/ha); type: functional
Allium cepa [11] = assay: Phytotoxicity in Allium cepa (onion) seedling assessed as total fresh weight at 0.6 kg/ha applied as spray before seed sowing (reference value: 7.71 MT/ha); type: organism-based; details: in vivo, other
Chenopodiastrum murale [12] = assay: Herbicidal activity against Chenopodium murale assessed as total dry weight at 0.6 kg/ha applied as spray before seed sowing (reference value: 4.1 MT/ha); type: functional
Malva sylvestris [13] = assay: Herbicidal activity against Malva sylvestris assessed as total fresh weight at 0.6 kg/ha applied as spray before seed sowing (reference value: 23.6 MT/ha); type: functional
Cyperus rotundus [14] = assay: Herbicidal activity against Cyperus rotundus assessed as total fresh weight at 0.6 kg/ha applied as spray before seed sowing (reference value: 23.6 MT/ha); type: functional
Cyperus rotundus [15] = assay: Herbicidal activity against Cyperus rotundus assessed as decrease in total dry weight at 0.6 kg/ha applied as spray during post-emergence relative to weed-infested control; type: functional; parameters: scale not given: the % may be the effect or the level left
Malva sylvestris [16] = assay: Herbicidal activity against Malva sylvestris assessed as decrease in total dry weight at 0.6 kg/ha applied as spray during post-emergence relative to weed-infested control; type: functional; parameters: scale not given: the % may be the effect or the level left
Allium cepa [17] = assay: Phytotoxicity in Allium cepa (onion) seedling assessed as total fresh weight at 0.6 kg/ha applied as spray during post-emergence (reference value: 7.71 MT/ha); type: organism-based; details: in vivo, other
Chenopodiastrum murale [18] = assay: Herbicidal activity against Chenopodium murale assessed as total fresh weight at 0.6 kg/ha applied as spray during postemergence (reference value: 23.6 MT/ha); type: functional
Cyperus rotundus [19] = assay: Herbicidal activity against Cyperus rotundus assessed as total fresh weight at 0.6 kg/ha applied as spray during post-emergence (reference value: 23.6 MT/ha); type: functional
Malva sylvestris [20] = assay: Herbicidal activity against Malva sylvestris assessed as total fresh weight at 0.6 kg/ha applied as spray during post-emergence (reference value: 23.6 MT/ha); type: functional
Chenopodiastrum murale [21] = assay: Herbicidal activity against Chenopodium murale assessed as decrease in total dry weight at 0.6 kg/ha applied as spray during postemergence relative to weed-infested control; type: functional; parameters: scale not given: the % may be the effect or the level left
Chenopodiastrum murale [22] = assay: Herbicidal activity against Chenopodium murale assessed as total fresh weight at 0.02 kg/ha applied as spray during postemergence (reference value: 23.6 MT/ha); type: functional
Malva sylvestris [23] = assay: Herbicidal activity against Malva sylvestris assessed as decrease in total dry weight at 0.02 kg/ha applied as spray during post-emergence relative to weed-infested control; type: functional; parameters: scale not given: the % may be the effect or the level left
Malva sylvestris [24] = assay: Herbicidal activity against Malva sylvestris assessed as total fresh weight at 0.02 kg/ha applied as spray during post-emergence (reference value: 23.6 MT/ha); type: functional
Cyperus rotundus [25] = assay: Herbicidal activity against Cyperus rotundus assessed as decrease in total dry weight at 0.02 kg/ha applied as spray during post-emergence relative to weed-infested control; type: functional; parameters: scale not given: the % may be the effect or the level left
Allium cepa [26] = assay: Phytotoxicity in Allium cepa (onion) seedling assessed as total fresh weight at 0.02 kg/ha applied as spray during postemergence (reference value: 7.71 MT/ha); type: organism-based; details: in vivo, other
Chenopodiastrum murale [27] = assay: Herbicidal activity against Chenopodium murale assessed as decrease in total dry weight at 0.02 kg/ha applied as spray during postemergence relative to weed-infested control; type: functional; parameters: scale not given: the % may be the effect or the level left
Cyperus rotundus [28] = assay: Herbicidal activity against Cyperus rotundus assessed as total fresh weight at 0.02 kg/ha applied as spray during post-emergence (reference value: 23.6 MT/ha); type: functional
Cyperus rotundus [29] = assay: Herbicidal activity against Cyperus rotundus assessed as total dry weight at 1.5 kg/ha applied as spray before seed sowing (reference value: 4.1 MT/ha); type: functional; details: pooled result: one value given for 3 cell lines, strains, targets or settings
Allium cepa [30] = assay: Phytotoxicity in Allium cepa (onion) seedling assessed as total fresh weight at 1.5 kg/ha applied as spray before seed sowing (reference value: 7.71 MT/ha); type: organism-based; details: in vivo, other
Cyperus rotundus [31] = assay: Herbicidal activity against Cyperus rotundus assessed as total fresh weight at 1.5 kg/ha applied as spray before seed sowing (reference value: 23.6 MT/ha); type: functional; details: pooled result: one value given for 3 cell lines, strains, targets or settings

C[C@@H](Oc1ccc(Oc2ccc(C(F)(F)F)cn2)cc1)C(=O)O [FLUAZIFOP-P]
Activity (Cyperus rotundus [1]): 15.6 MT/ha | Activity (Chenopodiastrum murale [2]): 15.6 MT/ha | Activity (Malva sylvestris [3]): 2.9 MT/ha | Activity (Chenopodiastrum murale [4]): 2.9 MT/ha | Activity (Cyperus rotundus [5]): 2.9 MT/ha | Activity (Malva sylvestris [6]): 15.6 MT/ha | Activity (Allium cepa [7]): 9.18 MT/ha

CCOc1cc(Oc2ccc(C(F)(F)F)cc2Cl)ccc1[N+](=O)[O-] [OXYFLUORFEN]
Activity (Malva sylvestris [8]): 2.93 MT/ha | Activity (Chenopodiastrum murale [9]): 15.8 MT/ha | Activity (Cyperus rotundus [10]): 2.93 MT/ha | Activity (Allium cepa [11]): 8.68 MT/ha | Activity (Chenopodiastrum murale [12]): 2.93 MT/ha | Activity (Malva sylvestris [13]): 15.8 MT/ha | Activity (Cyperus rotundus [14]): 15.8 MT/ha | Activity (Cyperus rotundus [15]): 68% | Activity (Malva sylvestris [16]): 68% | Activity (Allium cepa [17]): 17.01 MT/ha | Activity (Chenopodiastrum murale [18]): 7.7 MT/ha | Activity (Cyperus rotundus [19]): 7.7 MT/ha | Activity (Malva sylvestris [20]): 7.7 MT/ha | Activity (Chenopodiastrum murale [21]): 68%

C[n+]1ccc(-c2cc[n+](C)cc2)cc1 [PARAQUAT]
Activity (Chenopodiastrum murale [22]): 8.2 MT/ha | Activity (Malva sylvestris [23]): 60% | Activity (Malva sylvestris [24]): 8.2 MT/ha | Activity (Cyperus rotundus [25]): 60% | Activity (Allium cepa [26]): 14.11 MT/ha | Activity (Chenopodiastrum murale [27]): 60% | Activity (Cyperus rotundus [28]): 8.2 MT/ha

CCC(CC)Nc1c([N+](=O)[O-])cc(C)c(C)c1[N+](=O)[O-] [PENDIMETHALIN]
Activity (Cyperus rotundus [29]): 2.9 MT/ha | Activity (Allium cepa [30]): 7.42 MT/ha | Activity (Cyperus rotundus [31]): 17.5 MT/ha
